Blank lines part the entries; values can stand above or below the molecule they belong to.
Columns and labels:
[1] = biological target: T1, bonsai cohesin trimer (Smc1^B, Smc3^B, Scc1) (Homo sapiens, UniProt Q14683+Q9UQE7, Q9UQE7:K38A/Q14683:DEL201-498/Q9UQE7:DEL205-491/Q14683:DEL676-977/Q9UQE7:DEL686-956); experiment: radiolabelled ATPase assay, thin layer chromatography of released […]-Pi; format: biochemical; conditions: labelled compound (γ-32P); ATP-binding region mutant, ATPase largely abolished
T1 construct: gene SMC1A; coiled coils of Smc1 and Smc3 truncated and replaced by two-residue linkers (superscript B = bonsai, not the SMC1B paralogue); Smc3^B-FLAG, Scc1-10HIS tags; co-expressed from baculovirus in Sf9; stoichiometric trimer, 222 kDa; with Double-strand-break repair protein rad21 homolog

[2] = biological target: T2, bonsai cohesin trimer (Smc1^B, Smc3^B, Scc1) (Homo sapiens, UniProt Q14683+Q9UQE7, Q14683:DEL201-498/Q9UQE7:DEL205-491/Q14683:DEL676-977/Q9UQE7:DEL686-956); experiment: as above; format: biochemical; conditions: labelled compound (γ-32P)
T2 construct: gene SMC1A; coiled coils of Smc1 and Smc3 truncated and replaced by two-residue linkers (superscript B = bonsai, not the SMC1B paralogue); Smc3^B-FLAG, Scc1-10HIS tags; co-expressed from baculovirus in Sf9; stoichiometric trimer, 222 kDa; with Double-strand-break repair protein rad21 homolog

[3] = biological target: T2, bonsai cohesin trimer (Smc1^B, Smc3^B, Scc1); experiment: differential scanning fluorimetry (thermal shift); format: binding; conditions: slowly hydrolysable ATP analogue; stabilises the complex; trimer inferred from context
[4] = biological target: T3, Pds5B^10HIS (human, UniProt Q9NTI5 1-1447); experiment: negative staining EM, single-particle 3D reconstruction; GraFix-prepared complexes (0.1% glutaraldehyde gradient, ATPγS), uranyl formate stain; 3D models at 28-35 Å; densities assigned by difference maps; conditions: both partners purified
T3 construct: Pds5B, human, recombinant; printed mass 165 kDa; source: sf9 cells (baculovirus), purified (Ni-NTA; imidazole removed by dilution and concentration or by size-exclusion chromatography on Superdex 200), freeze-thawed
T3 sequence (looked up): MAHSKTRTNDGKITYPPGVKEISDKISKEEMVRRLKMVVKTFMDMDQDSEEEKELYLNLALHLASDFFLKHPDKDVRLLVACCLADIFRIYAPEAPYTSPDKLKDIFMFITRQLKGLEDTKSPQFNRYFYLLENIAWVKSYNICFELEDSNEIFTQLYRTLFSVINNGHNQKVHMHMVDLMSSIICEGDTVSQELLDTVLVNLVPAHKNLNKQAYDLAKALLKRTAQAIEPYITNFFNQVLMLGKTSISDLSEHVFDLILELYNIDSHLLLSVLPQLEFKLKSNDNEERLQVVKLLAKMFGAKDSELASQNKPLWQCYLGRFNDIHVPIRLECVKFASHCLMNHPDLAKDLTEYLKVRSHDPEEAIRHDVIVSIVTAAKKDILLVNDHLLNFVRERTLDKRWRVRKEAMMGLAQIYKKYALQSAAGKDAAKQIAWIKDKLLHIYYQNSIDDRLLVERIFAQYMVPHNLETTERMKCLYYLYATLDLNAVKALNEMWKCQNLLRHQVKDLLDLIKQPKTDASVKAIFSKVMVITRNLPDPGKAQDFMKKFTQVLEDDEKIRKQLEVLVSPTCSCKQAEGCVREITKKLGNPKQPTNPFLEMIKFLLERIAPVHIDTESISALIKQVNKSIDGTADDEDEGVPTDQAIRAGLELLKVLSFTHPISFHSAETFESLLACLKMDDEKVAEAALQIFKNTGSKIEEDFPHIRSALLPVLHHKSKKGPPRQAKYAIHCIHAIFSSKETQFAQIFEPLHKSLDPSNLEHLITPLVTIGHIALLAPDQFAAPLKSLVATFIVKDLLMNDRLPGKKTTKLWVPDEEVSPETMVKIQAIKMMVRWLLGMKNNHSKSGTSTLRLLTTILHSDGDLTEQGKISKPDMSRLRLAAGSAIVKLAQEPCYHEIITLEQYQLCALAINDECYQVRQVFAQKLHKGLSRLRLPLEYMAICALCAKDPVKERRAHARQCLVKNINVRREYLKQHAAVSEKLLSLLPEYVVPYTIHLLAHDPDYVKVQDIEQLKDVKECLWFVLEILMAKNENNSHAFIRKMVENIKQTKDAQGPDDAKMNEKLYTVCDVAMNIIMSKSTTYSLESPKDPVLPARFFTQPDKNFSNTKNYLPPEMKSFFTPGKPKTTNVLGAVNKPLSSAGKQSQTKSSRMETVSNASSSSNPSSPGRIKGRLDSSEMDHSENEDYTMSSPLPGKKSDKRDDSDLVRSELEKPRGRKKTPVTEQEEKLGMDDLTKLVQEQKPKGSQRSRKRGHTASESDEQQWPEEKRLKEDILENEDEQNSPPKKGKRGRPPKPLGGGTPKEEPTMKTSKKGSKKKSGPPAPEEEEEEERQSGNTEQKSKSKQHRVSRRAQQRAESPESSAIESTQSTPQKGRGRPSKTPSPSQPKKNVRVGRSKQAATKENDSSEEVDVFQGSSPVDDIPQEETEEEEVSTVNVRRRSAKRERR

[5] = biological target: T3, Pds5B^10HIS; experiment: cross-linking; chemical crosslinking followed by mass spectrometry of purified bonsai cohesin (co-expressed subunits) bound to Pds5B; 102 inter- and 244 intramolecular crosslinks; details in the Supplementary Methods; conditions: both partners purified

Molecule: Nc1ncnc2c1ncn2[C@@H]1O[C@H](COP(=O)(O)OP(=O)(O)OP(=O)(O)O)[C@@H](O)[C@H]1O [ATP]
radiolabelled ATPase assay, thin layer chromatography of released 32P-Pi [1]: The single point mutation largely abolished bonsai cohesin's ATPase activity | radiolabelled ATPase assay, thin layer chromatography of released 32P-Pi [2]: Bonsai trimers containing wild-type NBDs ... were able to hydrolyse ATP

Molecule: Nc1ncnc2c1ncn2[C@@H]1O[C@H](COP(=O)(O)OP(=O)(O)OP(O)(O)=S)[C@@H](O)[C@H]1O [ATPγS]
differential scanning fluorimetry (thermal shift) [3]: presence of the slowly hydrolyzable ATP-analogue ATPyS, as well as a near physiological pH improved the stability

More lines, now with the values ahead:

binding result [4]: binds
B1: Scc1^10HIS (natural protein, human, UniProt O60216 1-631, looked up)
chain: MFYAHFVLSKRGPLAKIWLAAHWDKKLTKAHVFECNLESSVESIISPKVKMALRTSGHLLLGVVRIYHRKAKYLLADCNEAFIKIKMAFRPGVVDLPEENREAAYNAITLPEEFHDFDQPLPDLDDIDVAQQFSLNQSRVEEITMREEVGNISILQENDFGDFGMDDREIMREGSAFEDDDMLVSTTTSNLLLESEQSTSNLNEKINHLEYEDQYKDDNFGEGNDGGILDDKLISNNDGGIFDDPPALSEAGVMLPEQPAHDDMDEDDNVSMGGPDSPDSVDPVEPMPTMTDQTTLVPNEEEAFALEPIDITVKETKAKRKRKLIVDSVKELDSKTIRAQLSDYSDIVTTLDLAPPTKKLMMWKETGGVEKLFSLPAQPLWNNRLLKLFTRCLTPLVPEDLRKRRKGGEADNLDEFLKEFENPEVPREDQQQQHQQRDVIDEPIIEEPSRLQESVMEASRTNIDESAMPPPPPQGVKRKAGQIDPEPVMPPQQVEQMEIPPVELPPEEPPNICQLIPELELLPEKEKEKEKEKEDDEEEEDEDASGGDQDQEERRWNKRTQQMLHGLQRALAKTGAESISLLELCRNTNRKQAAAKFYSFLVLKKQQAIELTQEEPYSDIIATPGPRFHII
notes: Scc1 (Rad21, Mcd1), human; also called Rad21; Mcd1

binding result [5]: binds
B2: SA1 (natural protein, human, UniProt Q8WVM7 1-1258, looked up)
chain: MITSELPVLQDSTNETTAHSDAGSELEETEVKGKRKRGRPGRPPSTNKKPRKSPGEKSRIEAGIRGAGRGRANGHPQQNGEGEPVTLFEVVKLGKSAMQSVVDDWIESYKQDRDIALLDLINFFIQCSGCRGTVRIEMFRNMQNAEIIRKMTEEFDEDSGDYPLTMPGPQWKKFRSNFCEFIGVLIRQCQYSIIYDEYMMDTVISLLTGLSDSQVRAFRHTSTLAAMKLMTALVNVALNLSIHQDNTQRQYEAERNKMIGKRANERLELLLQKRKELQENQDEIENMMNSIFKGIFVHRYRDAIAEIRAICIEEIGVWMKMYSDAFLNDSYLKYVGWTLHDRQGEVRLKCLKALQSLYTNRELFPKLELFTNRFKDRIVSMTLDKEYDVAVEAIRLVTLILHGSEEALSNEDCENVYHLVYSAHRPVAVAAGEFLHKKLFSRHDPQAEEALAKRRGRNSPNGNLIRMLVLFFLESELHEHAAYLVDSLWESSQELLKDWECMTELLLEEPVQGEEAMSDRQESALIELMVCTIRQAAEAHPPVGRGTGKRVLTAKERKTQIDDRNKLTEHFIITLPMLLSKYSADAEKVANLLQIPQYFDLEIYSTGRMEKHLDALLKQIKFVVEKHVESDVLEACSKTYSILCSEEYTIQNRVDIARSQLIDEFVDRFNHSVEDLLQEGEEADDDDIYNVLSTLKRLTSFHNAHDLTKWDLFGNCYRLLKTGIEHGAMPEQIVVQALQCSHYSILWQLVKITDGSPSKEDLLVLRKTVKSFLAVCQQCLSNVNTPVKEQAFMLLCDLLMIFSHQLMTGGREGLQPLVFNPDTGLQSELLSFVMDHVFIDQDEENQSMEGDEEDEANKIEALHKRRNLLAAFSKLIIYDIVDMHAAADIFKHYMKYYNDYGDIIKETLSKTRQIDKIQCAKTLILSLQQLFNELVQEQGPNLDRTSAHVSGIKELARRFALTFGLDQIKTREAVATLHKDGIEFAFKYQNQKGQEYPPPNLAFLEVLSEFSSKLLRQDKKTVHSYLEKFLTEQMMERREDVWLPLISYRNSLVTGGEDDRMSVNSGSSSSKTSSVRNKKGRPPLHKKRVEDESLDNTWLNRTDTMIQTPGPLPAPQLTSTVLRENSRPMGDQIQEPESEHGSEPDFLHNPQMQISWLGQPKLEDLNRKDRTGMNYMKVRTGVRHAVRGLMEEDAEPIFEDVMMSSRSQLEDMNEEFEDTMVIDLPPSRNRRERAELRPDFFDSAAIIEDDSGFGMPMF
notes: SA1, human (146 kDa printed)
